US5880121A, “4,5-dihydronaphth (1,2-c) isoxazoles and derivatives thereof” (Hoechst Marion Roussel Inc., priority 1996, dated 1999)

Key:
5-HT3 Receptor = molecular target: T1, 5-HT3 Receptor (Rattus norvegicus, UniProt P35563); assay: ^3 H-GR 65630 Binding to Rat Entorhinal Cortex Membranes (affinity for 5-HT3 receptor); design: species or system Male Wistar rat; details: 0.4 nM [^3 H]-GR65630, pH 7.4, 30 minutes at 37° C., read-out: IC50, Affinity for 5-HT3 Receptor-Displacement of ^3 H-GR 65630
T1 construct: Male Wistar rats (15-200 g) were decapitated, the entorhinal cortex removed, weighed and homogenized; from tissue; host or cells: entorhinal cortex membranes of male Wistar rats
T1 sequence (P35563 24-483): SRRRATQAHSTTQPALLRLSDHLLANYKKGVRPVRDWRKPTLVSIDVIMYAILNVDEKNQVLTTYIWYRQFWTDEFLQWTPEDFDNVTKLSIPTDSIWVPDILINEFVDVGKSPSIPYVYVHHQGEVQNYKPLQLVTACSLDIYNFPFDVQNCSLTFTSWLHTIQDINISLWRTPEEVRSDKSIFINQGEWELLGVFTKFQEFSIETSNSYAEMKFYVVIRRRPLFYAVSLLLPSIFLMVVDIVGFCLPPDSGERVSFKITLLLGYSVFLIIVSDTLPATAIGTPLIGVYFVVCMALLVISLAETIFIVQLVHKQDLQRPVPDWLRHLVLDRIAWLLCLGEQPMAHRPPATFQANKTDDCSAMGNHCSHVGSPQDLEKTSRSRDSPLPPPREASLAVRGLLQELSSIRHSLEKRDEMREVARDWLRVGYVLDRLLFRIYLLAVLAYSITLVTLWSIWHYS
Experimental: In accordance with the above-discussed assay, a 0.05M of Krebs-Hepes buffer, pH 7.4 was prepared as follows:
q.s. to 1 liter with distilled H2 O, bring pH up to 7.4 (at 4° C.) with 5N NaOH
[^3 H]-GR65630 (87.0 Ci/mmol) was obtained from New England Nuclear.
GR38032F was obtained from Research Biochemical Inc. GR38032F was made up to a concentration of 500 μM in Krebs-Hepes buffer. 50 μl of […] were added to each of 3 tubes for determination of nonspecific binding (yields a final concentration of 100 μM in the 250 μl assay).
For most assays, a 50 μM stock solution was prepared in a suitable solvent and serially diluted with Krebs-Hepes buffer such that when 50 μl of drug is combined with the total 250 μl assay, a final concentration from 10^-5 to 10^-8 M was attained.
During tissue preparation, Male Wistar rats ([…]) were decapitated, the entorhinal cortex removed, weighed and homogenized in 10 volumes of ice cold 0.05M Krebs-Hepes buffer, pH 7.4. The homogenate is centrifuged at 48,000 g for 15 minutes at 4° C. The resulting pellet was rehomogenized in fresh Krebs-Hepes buffer and recentrifuged at 48,000 g for 15 minutes at 4° C. The final pellet was resuspended in the original volume of ice-cold Krebs-Hepes buffer. This yielded a final tissue concentration of 1.2 to 1.6 mg/ml with the addition of 100 μl to the assay.
In conducting the assay, the following volumes were utilized:
Sample tubes were kept on ice for additions, then vortexed and incubated with continuous shaking for 30 minutes at 37° C. At the end of the incubation period, the incubate is diluted with 5 ml of ice-cold Krebs-Hepes buffer and immediately vacuum filtered through Whatman GF/B filters, followed by two 5 ml washes with ice-cold Krebes-Hepes buffer. The filters are dried and counted in 10 ml of liquid scintillation cocktail. […] IC50 values were derived from computer-derived log-probit analysis.

5-HT3 = assay: 5 HT3 antagonist effects in the Bezold-Jarisch assay (reflex bradycardia, anesthetized Long-Evans rat); format: in vivo; details: ip, mean ± SEM, 2-3 rats/dose
From the text: Measurement of 5 HT3 Antagonist Effects in the Bezold-Jarisch Assay
This assay evaluates the effect of these compounds as 5-HT3 antagonists. They were examined in this assay on the coronary chemoreflex (Bezold-Jarisch) initiated by […] in vivo and characterized by leading inhibition of sympathetic outflow and increased activity of the cardiac vagus, leading to profound bradycardia and hypotension. The values obtained allow for continuous monitoring of arterial pressure and heart rate responses by these compounds over an extended period of time to determine their effecicy for 5 HT3 antagonism.
The catheters were prepared from Tygon tubing (45 cm length, […], ID) bonded to Teflon tubing (0.38 mm, ID). The mechanical bonding was achieved by insertion of the Teflon tubing (5 mm) into the dilated (ethylene dichloride, 3-4 min.) tip of the Tygon tubing. The junction was then sealed with vinyl glue, the catheters were soaked in cold sterilization solution (Amerse instrument germicide) and flushed thoroughly with saline prior to implantation.
Long Evans rats were anesthetized with sodium pentobarbital (50 mg/kg, ip). […] The catheters were then sutured to the underlying muscle and the free ends were passed subcutaneously and exteriorized through an incision on the top of the skull. The catheters were then secured to the skin with sutures, nitrofurazone powder was dusted over the area of the incision and the incision was closed using 3-O silk sutures. The catheters were flushed with saline and sealed with metal obturators. Patentcy of the two catheters was maintained by daily flushing with hepranized saline (0.2 ml of 100 U/ml). The rats were given 48 hours recovery prior to obtaining cardiovascular data.
In the anesthetized rat model the catheters were not exteriorized, data was collected acutely under the influence of general anesthesia.
The baseline data Arterial Blood Pressure (mm Hg, systolic/diastolic) and Heart Rate (beats/min) were recorded and the rats were injected with 5-HT (3-7.5 ug/kg, iv). The individual response to the 5-HT intervention was determined and the compound was then administered singlely or in an ascending dose range. The rats were challenged with 5-HT again at intervals postdosing and the peak response was recorded.

c1ccc2c(c1)CCc1c-2noc1N1CCCNCC1 [Ex. 4, 3-(1-Homopiperazinyl)-4,5-dihydronaphth[1,2-c]isoxazole] was tested, and the IC50 (5-HT3 Receptor) was 83 nM, the “% Inhibition of Bezold-Jarisch Reflex” value (5-HT3; 0.03 mg/kg) was 58.6 ± 16.4% and the “% Inhibition of Bezold-Jarisch Reflex” value (5-HT3; 0.05 mg/kg) was 83.3 ± 8.2%. For the same compound, the “% Inhibition of Bezold-Jarisch Reflex” value (5-HT3; 0.10 mg/kg) was 93.0 ± 1.0%.

For c1ccc2c(c1)CCc1c-2noc1N1CCNCC1 [Ex. 5, 3-(1-Piperazinyl)-4,5-dihydronaphth[1,2-c]isoxazole], the IC50 (5-HT3 Receptor) was 56 nM, the “% Inhibition of Bezold-Jarisch Reflex” value (5-HT3; 1.0 mg/kg) was 55.6 ± 9.7% and the “% Inhibition of Bezold-Jarisch Reflex” value (5-HT3; 3.0 mg/kg) was 89.3 ± 2.9%.

OCCN1CCN(c2onc3c2CCc2ccccc2-3)CC1 [Ex. 3, 3-(4-(2-Hydroxyethyl)-1-piperazinyl)-4,5-dihydronaphth[1,2-c]isoxazole] showed an IC50 (5-HT3 Receptor) of 868 nM.

With Cc1nccn1CC1CCc2c(c3ccccc3n2C)C1=O (stereo not shown) [Ondansetron, reference compound] the “% Inhibition of Bezold-Jarisch Reflex” value (5-HT3; 3.0 mg/kg) was 57.3 ± 9.7% and the “% Inhibition of Bezold-Jarisch Reflex” value (5-HT3; 10.0 mg/kg) was 94.6 ± 2.7%.
